Measured values published in patent US20110160147A1, “NOVEL DUAL TARGETING A[…]” (priority 2008, published 2011).
Values joined by “and” are separate entries in the source; they are usually repeats but may differ in a detail not shown here. Identical values can stand only once.

What was measured:
αvβ5 receptors = αvβ5 receptors (Homo sapiens, UniProt P06756+P18084); test: Solid-phase binding assay, inhibition of [125I]Echistatin binding to αvβ5 receptors
Method: The receptor binding assays were performed as described (Orlando R. A., et al., J. Biol. Chem. 1991, 266, 19543). αvβ3 and αvβ5 were diluted to 500 ng/ml and 1 μg/ml, respectively, in coating buffer (20 mM Tris, pH 7.4, 150 mM NaCl, 2 mM CaCl2, 1 mM MgCl2, 1 mM MnCl2) and an aliquot of 100 μL was added to a 96-well microtiter plate and incubated overnight at 4° C. The plate was washed once with blocking/binding buffer (50 mM Tris, pH 7.4, 100 mM NaCl, 2 mM CaCl2, 1 mM MgCl2, 1 mM MnCl2, 1% bovine serum albumin), and then was incubated for additional 2 h at RT The plate was rinsed twice with the same buffer and incubated for 3 h at RT with radiolabeled ligand [^125I]Echistatin (Amersham Pharmacia Biotech) 0.05 nM (0.1 nM for αv β5) in the presence of competing inhibitors. After the incubation, the wells were washed and radioactivity was determined with a gamma-counter (Packard). Non-specific binding of ligand was determined with molar excess (200 nM) of cold echistatin.
The IC50 values reported in Tables 1 and 2 were calculated as the concentrations of compounds required for 50% inhibition of echistatin binding and were estimated by the Prism GraphPad program. The Ki of the competing ligands were calculated according to the Cheng-Prusoff equation (Cheng Y. C., et al., Biochem. Pharmacol., 1973, 22, 3099). Values are the mean±log standard error of triplicate determinations from two independent experiments.

[1] = Antitumour activity against A2780 ovarian carcinoma xenografted in CD1 nude mice; assay type: in vivo; conditions: CD1 nude, mouse, in vivo, sc; s.c. qdx5/wx2w; read-out: approximate maximum tolerate dose (MTD)
Method: (§1) Tumour cell lines (3×10^6) were injected s.c. into the right flank of CD1 nude mice (Harlan). Each experimental group included 10 mice. Tumours were implanted on day 0, and tumour growth was followed by biweekly measurements of tumour diameters with a Vernier caliper. Tumour volume was calculated according to the formula: TV (mm^3)=d^2×D/2, where d and D are the shortest diameter and the longest diameter respectively. Drug treatment started when tumours were just measurable on day 3 after tumour inoculation. The drug was administered subcutaneously for two weeks according to the schedule qd×5/w×2w at different doses in a volume of 10 ml/kg. Control mice were treated with the vehicle (10% DMSO).
(§2) Drug efficacy was assessed as described below. • a) TVI in drug-treated versus control mice was expressed as follows: TVI (%)=100−(mean TV treated/mean TV control)×100. TVI was evaluated 6 days after the last treatment, this timing corresponding to the time necessary to observe a doubling of tumour volume in the control mice. • b) Log cell kill (LCK) was calculated using the following formula: LCK=(T−C)/3.32×DT where T and C are the mean time (in days) required for treated (T) and control (C) tumours, respectively to reach a determined volume, and DT is the time necessary to observe a doubling of tumour volume in the control mice. • c) CR was defined as disappearance of the tumour lasting at least 6 days after the end of treatments. Tumours that had not regrown by the end of the experiment were considered “cured”.
(§3) Toxic effects of drug treatment were assessed as described below. • a) BWL was calculated as follows: BWL (%)=100−(mean body weight day x/mean body weight day 1)×100, where day 1 is the first day of treatment, and day x is any day thereafter. Mice were weighed every day throughout the period of treatment. • b) Lethal toxicity was defined as any death in treated groups occurring before any control death. Mice were inspected daily for mortality.
(§4) TI (therapeutic index) was calculated as ratio MTD/ED80.

[2] = system: A2780 ovarian ca. xenografted in CD1 nude mice; test: as above; assay type: in vivo; conditions: for TVI % versus control mice: 6 days after last treatment
Method: as §1, §2, §3, §4

[3] = system: PC3 prostate ca. xenografted in CD1 nude mice; test: Antimetastatic activity on bone metastases induced by intracardiac injection of PC3 human prostate carcinoma; assay type: in vivo
Method: Male CD1 nude mice were anesthetized by 4 ml/kg of a mixture (xylazine:ketavet 100) given i.p. PC3 tumour cells were inoculated by intracardiac injection (1×10^5 cells/0.1 ml/mouse) into the heart left ventricle of mice using a 27-gauge needle. Mice were subdivided (11 mice/group) in the following experimental groups and after three days from tumour injection the molecules were administered as described:
Vehicle (DMSO 10%) i.v. q4d×4.
To evaluate the antitumour activity of the drug, high-resolution total body radiological analysis was carried out by using Faxitron system. Radiological analysis was carried out 30 days after tumour injection. Body weight recordings were carried out through the study and mortality was noted.

[4] = 0.92 mg/10 ml/kg s.c. qdx5/wx2w
[5] = 2.77 mg/10 ml/kg s.c. qdx5/wx2w

αvβ5 receptors, sequence (P06756 31-889 limits assumed): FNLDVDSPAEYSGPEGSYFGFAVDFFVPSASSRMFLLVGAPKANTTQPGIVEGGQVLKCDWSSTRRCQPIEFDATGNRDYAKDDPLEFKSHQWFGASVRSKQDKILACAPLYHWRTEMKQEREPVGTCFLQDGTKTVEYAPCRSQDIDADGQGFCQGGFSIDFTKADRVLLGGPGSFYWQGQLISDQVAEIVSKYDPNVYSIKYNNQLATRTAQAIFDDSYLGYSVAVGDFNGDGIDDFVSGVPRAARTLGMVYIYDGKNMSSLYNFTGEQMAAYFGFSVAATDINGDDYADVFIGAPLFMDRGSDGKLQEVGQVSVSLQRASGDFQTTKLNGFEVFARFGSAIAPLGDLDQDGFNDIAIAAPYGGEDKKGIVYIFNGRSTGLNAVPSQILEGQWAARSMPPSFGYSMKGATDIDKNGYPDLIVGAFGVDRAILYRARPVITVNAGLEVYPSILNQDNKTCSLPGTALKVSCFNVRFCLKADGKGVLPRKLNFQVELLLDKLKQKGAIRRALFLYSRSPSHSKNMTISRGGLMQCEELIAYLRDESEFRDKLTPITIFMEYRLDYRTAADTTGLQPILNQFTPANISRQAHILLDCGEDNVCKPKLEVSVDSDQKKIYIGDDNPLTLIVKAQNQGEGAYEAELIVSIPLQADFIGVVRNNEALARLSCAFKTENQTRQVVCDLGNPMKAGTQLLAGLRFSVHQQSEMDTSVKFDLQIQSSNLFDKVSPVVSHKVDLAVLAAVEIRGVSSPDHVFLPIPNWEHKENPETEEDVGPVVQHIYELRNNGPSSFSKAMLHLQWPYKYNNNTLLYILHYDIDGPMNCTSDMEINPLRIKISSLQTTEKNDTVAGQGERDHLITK
αvβ5 receptors, sequence (P06756 891-1048 partner limits assumed): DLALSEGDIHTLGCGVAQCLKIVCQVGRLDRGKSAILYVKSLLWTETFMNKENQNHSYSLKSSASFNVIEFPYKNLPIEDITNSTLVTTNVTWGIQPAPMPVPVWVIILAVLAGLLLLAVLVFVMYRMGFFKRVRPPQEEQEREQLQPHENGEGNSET
αvβ5 receptors, sequence (P18084 24-799): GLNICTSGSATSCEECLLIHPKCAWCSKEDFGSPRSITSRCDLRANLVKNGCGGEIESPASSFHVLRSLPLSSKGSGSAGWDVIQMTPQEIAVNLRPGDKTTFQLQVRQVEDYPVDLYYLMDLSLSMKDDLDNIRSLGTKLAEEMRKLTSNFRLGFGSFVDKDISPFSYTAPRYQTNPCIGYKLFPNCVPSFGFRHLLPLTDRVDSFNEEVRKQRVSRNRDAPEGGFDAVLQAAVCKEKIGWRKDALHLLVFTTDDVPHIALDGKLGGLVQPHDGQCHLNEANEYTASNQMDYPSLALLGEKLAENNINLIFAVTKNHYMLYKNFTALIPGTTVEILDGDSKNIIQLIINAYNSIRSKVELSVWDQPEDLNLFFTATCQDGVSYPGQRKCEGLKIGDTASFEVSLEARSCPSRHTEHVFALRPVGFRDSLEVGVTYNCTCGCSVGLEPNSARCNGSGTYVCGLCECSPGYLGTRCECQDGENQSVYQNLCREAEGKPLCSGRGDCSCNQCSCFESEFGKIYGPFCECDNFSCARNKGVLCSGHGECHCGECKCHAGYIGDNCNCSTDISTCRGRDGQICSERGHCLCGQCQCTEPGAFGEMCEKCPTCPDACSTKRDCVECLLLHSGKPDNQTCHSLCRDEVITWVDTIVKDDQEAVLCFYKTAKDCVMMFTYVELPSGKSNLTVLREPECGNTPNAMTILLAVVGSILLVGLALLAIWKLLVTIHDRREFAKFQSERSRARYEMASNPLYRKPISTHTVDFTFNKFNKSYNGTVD

Molecule `CC[C@@]1(O)C(=O)OCc2c1cc1n(c2=O)Cc2c-1nc1ccccc1c2C=NOCCNC(=O)OCc1ccc(NC(=O)[C@H](CCCNC(N)=O)NC(=O)[C@H](C)NC(=O)COCCOCCOCC(=O)NCc2ccc(C[C@@H]3NC(=O)[C@@H](Cc4ccccc4)NC(=O)[C@H](CC(=O)O)NC(=O)CNC(=O)[C@H](CCCNC(=N)N)NC3=O)cc2)cc1` [ST3833] has an IC50 (αvβ5 receptors) of 87.8 ± 1.21 nM, a Ki (αvβ5 receptors) of 68.2 nM and an MTD at 2 weeks [1] of ~25 mg/kg. The “BWL % (maximum body weight loss)” value [2, 4] was 0%, the “CR (disappearance of tumour)” value [2, 4] was 3/10 and the “Cured (mice without lesion 90 days after tumour injection)” value [2, 4] was 3/10. For the same molecule, the “LCK (log cell kill)” value [2, 4] was 0.9, the “Lethal toxicity (dead/treated animals)” value [2, 4] was 0/10 and the “TVI % versus control mice” value [2, 4] was 60%. The cured mice ([2]; 0.92 mg/kg) was 30%, the “BWL % (maximum body weight loss)” value [2, 5] was 0% and the “CR (disappearance of tumour)” value [2, 5] was 3/10. The “Cured (mice without lesion 90 days after tumour injection)” value [2, 5] was 3/10, the “LCK (log cell kill)” value [2, 5] was 1.1 and the “Lethal toxicity (dead/treated animals)” value [2, 5] was 0/10. For the same molecule, the “TVI % versus control mice” value [2, 5] was 75%, the cured mice ([2]; 2.77 mg/kg) was 30% and the “BWL % (maximum body weight loss)” value ([2]; 8.3 mg/10 ml/kg s.c. qdx5/wx2w) was 0%. The “CR (disappearance of tumour)” value ([2]; 8.3 mg/10 ml/kg s.c. qdx5/wx2w) was 5/10, the “Cured (mice without lesion 90 days after tumour injection)” value ([2]; 8.3 mg/10 ml/kg s.c. qdx5/wx2w) was 4/10 and the “LCK (log cell kill)” value ([2]; 8.3 mg/10 ml/kg s.c. qdx5/wx2w) was 2.7. The “Lethal toxicity (dead/treated animals)” value ([2]; 8.3 mg/10 ml/kg s.c. qdx5/wx2w) was 0/10, the “TVI % versus control mice” value ([2]; 8.3 mg/10 ml/kg s.c. qdx5/wx2w) was 100% and the “BWL % (maximum body weight loss)” value ([2]; 25 mg/10 ml/kg s.c. qdx5/wx2w) was 25% and 24%. For the same molecule, the “CR (disappearance of tumour)” value ([2]; 25 mg/10 ml/kg s.c. qdx5/wx2w) was 9/9, the “Cured (mice without lesion 90 days after tumour injection)” value ([2]; 25 mg/10 ml/kg s.c. qdx5/wx2w) was 9/9 and the “LCK (log cell kill)” value ([2]; 25 mg/10 ml/kg s.c. qdx5/wx2w) was >11.4. The “Lethal toxicity (dead/treated animals)” value ([2]; 25 mg/10 ml/kg s.c. qdx5/wx2w) was 1/10, the “TVI % versus control mice” value ([2]; 25 mg/10 ml/kg s.c. qdx5/wx2w) was 100% and the cured mice ([2]; 1/3 MTD (8.3 mg/kg)) was 50%. For the same molecule, the “cured mice at day 90” value ([2]; at the MTD (25 mg/kg s.c.)) was 100%, the “BWL % (maximum body weight loss)” value ([3]; 56 mg/10 ml/kg i.v. q4dx4) was 0% and the “Lethal toxicity (dead/treated animals)” value ([3]; 56 mg/10 ml/kg i.v. q4dx4) was 0/11. For the same molecule, the “MST (median survival time)” value ([3]; 56 mg/10 ml/kg i.v. q4dx4) was 58 days, the “Incidence of osteolytic lesions (mice with metastases)” value ([3]; 56 mg/10 ml/kg i.v. q4dx4, 30 days after tumour injection) was 5/11 and the tolerability ([3]; 56 mg/kg iv (q4dx4), no reduction of body weight or lethal toxicity) was “well tolerated”. The “incidence of osteolytic lesions, % of mice” value ([3]; 56 mg/kg iv q4dx4, vehicle-treated group 91%) was 45%.
